PubChem BioAssay (NCI)
“And” between values parts separate entries of the source, which are not always exact repeats. Equal values may be shown once.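 How tested: cells in 96-well plates exposed to compound for 48 hours at five concentrations. GI50 is the concentration that inhibits growth by half. At the TGI there is no net growth.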

How the values were obtained:
Assay in all cases: growth of human tumour cells (NCI), 48 h
[1] = system: RPMI-8226 leukemia
[2] = system: HS 578T breast
[3] = system: IGROV1 ovarian
[4] = system: RXF 393 renal
[5] = system: NCI-H460 lung
[6] = system: SF-295 CNS
[7] = system: MDA-MB-231 breast
[8] = system: OVCAR-3 ovarian
[9] = system: SNB-19 CNS
[10] = system: MCF7 breast
[11] = system: T-47D breast
[12] = system: NCI/ADR-RES ovarian
[13] = system: OVCAR-4 ovarian
[14] = system: PC-3 prostate
[15] = system: HT29 colon
[16] = system: 786-0 renal
[17] = system: MALME-3M melanoma
[18] = system: NCI-H522 lung
[19] = system: CAKI-1 renal
[20] = system: ACHN renal
[21] = system: UO-31 renal
[22] = system: HOP-92 NSCLC
[23] = system: SK-MEL-28 melanoma
[24] = system: U251 CNS
[25] = system: HCT-15 colon
[26] = system: SF-268 CNS
[27] = system: HOP-62 NSCLC
[28] = system: NCI-H23 lung
[29] = system: SNB-75 CNS
[30] = system: HCT-116 colon
[31] = system: LOX IMVI melanoma
[32] = system: K-562 leukemia
[33] = system: DU-145 prostate
[34] = system: COLO 205 colon
[35] = system: A498 renal
[36] = system: SK-MEL-5 melanoma
[37] = system: TK-10 renal
[38] = system: M14 melanoma
[39] = system: UACC-257 melanoma
[40] = system: CCRF-CEM leukemia
[41] = system: MDA-MB-435
[42] = system: OVCAR-8 ovarian
[43] = system: OVCAR-5 ovarian
[44] = system: HCC-2998 colon
[45] = system: KM12 colon
[46] = system: SN12C renal
[47] = system: SK-MEL-2 melanoma
[48] = system: SW-620 colon
[49] = system: HL-60(TB) leukemia
[50] = system: SF-539 CNS
[51] = system: SR leukemia
[52] = system: MOLT-4 leukemia
[53] = system: UACC-62 melanoma
[54] = system: SK-OV-3 ovarian
[55] = system: EKVX NSCLC
[56] = system: A549 NSCLC
[57] = system: NCI-H226 lung
[58] = system: BT-549 breast

For `CN(C)c1ccc2nc3ccc(=[N+](C)C)cc-3sc2c1`, the GI50 [1] was 0.214 µM and 1.23 µM, the TGI [1] was 26 µM and 39.6 µM and the GI50 [2] was 3.08 µM and 3.62 µM. The TGI [2] was > 28.2 µM and 35.6 µM, the GI50 [3] was 1.18 µM and 2.03 µM and the TGI [3] was 11.5 µM and 6.47 µM. The GI50 [4] was 2.73 µM and 10.1 µM, the TGI [4] was 18 µM and 27.9 µM and the GI50 [5] was 0.431 µM and 1.03 µM. For the same compound, the TGI [5] was 14.9 µM and > 37.5 µM, the GI50 [6] was 0.329 µM and 0.934 µM and the TGI [6] was 10.3 µM and 10.2 µM. For the same compound, the GI50 [7] was 0.512 µM and 1.36 µM, the TGI [7] was 12.9 µM and 16.9 µM and the GI50 [8] was 0.307 µM and 0.3 µM. The TGI [8] was 1.66 µM, the GI50 [9] was 0.908 µM and 0.543 µM and the TGI [9] was 16.3 µM and 46.1 µM. The GI50 [10] was 0.304 µM and 0.324 µM, the TGI [10] was 12.2 µM and 14.5 µM and the GI50 [11] was 0.36 µM and 0.558 µM. The TGI [11] was 3.5 µM and 12.7 µM, the GI50 [12] was 0.408 µM and 0.563 µM and the TGI [12] was 23.1 µM and 14.2 µM. The GI50 [13] was 0.192 µM and 0.295 µM, the TGI [13] was 1.25 µM and 3.79 µM and the GI50 [14] was 0.161 µM and 0.288 µM. The TGI [14] was 2.71 µM and 16.2 µM, the GI50 [15] was 3.41 µM and 4.14 µM and the TGI [15] was 11.2 µM and 20.8 µM. For the same compound, the GI50 [16] was 2.68 µM and 2.92 µM, the TGI [16] was 17.6 µM and 27.1 µM and the GI50 [17] was 0.422 µM and 0.848 µM. The TGI [17] was 1.77 µM and 3.57 µM, the GI50 [18] was 0.232 µM and 0.449 µM and the TGI [18] was 0.906 µM and 4.5 µM. The GI50 [19] was 2.17 µM and 1.96 µM, the TGI [19] was 19.4 µM and 8.5 µM and the GI50 [20] was 2.65 µM and 3.04 µM. For the same compound, the TGI [20] was 15.3 µM and 24.1 µM, the GI50 [21] was 3.65 µM and 6.28 µM and the TGI [21] was 19.8 µM and 29.1 µM. For the same compound, the GI50 [22] was 2.59 µM and 1.74 µM, the TGI [22] was 24.8 µM and 11.1 µM and the GI50 [23] was 1.52 µM and 4.41 µM. The TGI [23] was 4.69 µM and 18.2 µM, the GI50 [24] was 0.248 µM and 0.341 µM and the TGI [24] was 2.23 µM and 11.2 µM. For the same compound, the GI50 [25] was 0.446 µM and 0.795 µM, the TGI [25] was 18.2 µM and > 100 µM and the GI50 [26] was 0.446 µM and 1.08 µM. The TGI [26] was 15.4 µM and 15.1 µM, the GI50 [27] was 2.47 µM and 4.89 µM and the TGI [27] was 15.9 µM and 21.9 µM. For the same compound, the GI50 [28] was 0.322 µM and 0.597 µM, the TGI [28] was 4.99 µM and 12.7 µM and the GI50 [29] was 1.79 µM and 2.92 µM. For the same compound, the TGI [29] was 10.1 µM and 17.3 µM, the GI50 [30] was 0.29 µM and 0.373 µM and the TGI [30] was 2.45 µM and 5.76 µM. The GI50 [31] was 0.404 µM and 0.65 µM, the TGI [31] was 7.61 µM and 10.4 µM and the GI50 [32] was 0.469 µM and 0.509 µM. The TGI [32] was 18.7 µM and 48.5 µM, the GI50 [33] was 3.4 µM and 3.86 µM and the TGI [33] was 16 µM and 14.8 µM. The GI50 [34] was 0.497 µM and 0.47 µM, the TGI [34] was 1.96 µM and 5.3 µM and the GI50 [35] was 4.12 µM and 6.21 µM. The TGI [35] was 22 µM and 55.8 µM, the GI50 [36] was 0.146 µM and 0.39 µM and the TGI [36] was 0.412 µM and 1.98 µM. For the same compound, the GI50 [37] was 3.98 µM and 1.42 µM, the TGI [37] was 16.1 µM and 17.2 µM and the GI50 [38] was 0.337 µM and 0.407 µM. For the same compound, the TGI [38] was 1.49 µM and 3.4 µM, the GI50 [39] was 0.219 µM and 0.411 µM and the TGI [39] was 0.711 µM and 2.36 µM. For the same compound, the GI50 [40] was 0.394 µM and 0.685 µM, the GI50 [41] was 0.976 µM and 1.46 µM and the TGI [41] was 3.26 µM and 4.02 µM. The GI50 [42] was 0.261 µM and 0.39 µM, the GI50 [43] was 0.599 µM and 0.642 µM and the TGI [43] was 11.3 µM and 17.3 µM. For the same compound, the GI50 [44] was 0.745 µM and 6.32 µM, the TGI [44] was 17.8 µM and 36 µM and the GI50 [45] was 0.724 µM and 0.696 µM. For the same compound, the TGI [45] was 19.6 µM and 15.7 µM, the GI50 [46] was 0.71 µM and 1.38 µM and the TGI [46] was 7.05 µM and 12.6 µM. The GI50 [47] was 1.44 µM and 0.544 µM, the TGI [47] was 3.68 µM and 13.6 µM and the GI50 [48] was 0.344 µM and 0.657 µM. The TGI [48] was 13.5 µM and 19.1 µM, the GI50 [49] was 0.0938 µM and 0.187 µM and the TGI [49] was 2.28 µM and 1.35 µM. The GI50 [50] was 0.139 µM and 0.379 µM, the TGI [50] was 9.82 µM and 14.7 µM and the GI50 [51] was 1.03 µM and 1.45 µM. The TGI [51] was 57.7 µM and 46.2 µM, the GI50 [52] was 1.11 µM and 0.934 µM and the TGI [52] was > 27.6 µM and 15.4 µM. The GI50 [53] was 0.808 µM and 2.64 µM, the TGI [53] was 2.61 µM and 15.2 µM and the GI50 [54] was 2.63 µM and 5.11 µM. For the same compound, the TGI [54] was 12.6 µM and 25.9 µM, the GI50 [55] was 4.24 µM and 0.804 µM and the TGI [55] was 28.3 µM and 29.4 µM. For the same compound, the GI50 [56] was 0.236 µM and 0.321 µM, the TGI [56] was 3.3 µM and 12 µM and the GI50 [57] was 1.82 µM and 12.7 µM. The TGI [57] was 16.6 µM and 36.6 µM, the GI50 [58] was 9.74 µM and 3.26 µM and the TGI [58] was 24.2 µM and 22.7 µM.
